Each cell line was assayed with COc1cccc2c1C(=O)c1c(O)c3c(c(O)c1C2=O)C[C@@](O)(C(=O)CO)C[C@@H]3O[C@H]1C[C@H](N)[C@H](O)[C@H](C)O1 [Doxorubicin] + CS(=O)(=O)N1CCN(Cc2cc3nc(-c4cccc5[nH]ncc45)nc(N4CCOCC4)c3s2)CC1 [Pictilisib] (partner 1 µM) (assay: relative viability (nuclei count vs DMSO), 5 days (fraction); higher = more cells survive). Conditions: first compound 0.03162 µM.
Procedure, shortened: (§1)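 Nuclei were stained with Hoechst during a one-step fixation (final 0.05% Triton X-100, 1% formaldehyde, 1 ug/ml Hoechst) carried out 5 days after dosing, then counted on 4× images. The cells, lung cancer lines in 1536-well plates, had been dosed by pin tool the day after seeding with one drug alone or a fixed anchor-drug dose plus five library-drug doses (not always all listed) in √10 steps. Relative viability is the nuclei count in treated wells divided by that in vehicle wells, and each value is the median of duplicate plates.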

Cell Line	relative viability
NCI-H2126	0.49
NCI-H1793	0.309
H3255	0.452
COR-L23	0.199
COR-L 105	0.283
LC-2-ad	0.359
LU99A	0.272
ChaGo-K-1	0.369
IA-LM	0.0936
A549	0.0558
NCI-H520	0.239
NCI-H2023	0.104
NCI-H1299	0.273
CAL-12T	0.343
NCI-H1563	0.541
NCI-H1650	0.159
SK-MES-1	0.342

Same assay, conditions: first compound 0.1 µM

Cell Line	relative viability
RERF-LC-KJ	0.48
NCI-H1651	0.107
EBC-1	0.11
NCI-H1734	0.267
NCI-H2009	0.282
NCI-H596	0.379
SK-LU-1	0.303
SW 1573	0.258
LCLC-97TM1	0.187
NCI-H661	0.324
NCI-H2228	0.117
EMC-BAC-2	0.338
NCI-H2087	0.454
Calu-6	0.172
HCC-44	0.527
NCI-H1703	0.136
NCI-H727	0.356
LK-2	0.442

Cell Line	relative viability
NCI-H2126	0.517
NCI-H1793	0.301
H3255	0.48
COR-L23	0.121
COR-L 105	0.277
LC-2-ad	0.227
LU99A	0.314
ChaGo-K-1	0.238
IA-LM	0.0491
A549	0.0454
NCI-H520	0.191
NCI-H2023	0.0731
NCI-H1299	0.196
CAL-12T	0.25
NCI-H1563	0.532
NCI-H1650	0.119
SK-MES-1	0.204

Each cell line was assayed with COc1cccc2c1C(=O)c1c(O)c3c(c(O)c1C2=O)C[C@@](O)(C(=O)CO)C[C@@H]3O[C@H]1C[C@H](N)[C@H](O)[C@H](C)O1 [Doxorubicin] + NC(=O)Nc1cc(-c2cccc(F)c2)sc1C(=O)N[C@H]1CCCNC1 [AZD7762] (partner 0.2 µM) in the same assay as above. Conditions: first compound 0.001 µM.
Procedure, shortened: as §1

Cell Line	relative viability
NCI-H2342	0.522
RERF-LC-KJ	1.04
NCI-H1651	0.466
NCI-H1734	0.515
NCI-H596	1.13
LCLC-97TM1	0.235
EMC-BAC-2	1.11
NCI-H2087	1.3
HCC-44	0.938
NCI-H1703	0.131
NCI-H727	0.675
LK-2	0.354
NCI-H2126	0.913
NCI-H1648	0.762
H3255	0.859
LC-2-ad	0.831
LU99A	0.353
ChaGo-K-1	0.857
NCI-H522	0.7
CAL-12T	0.727

Same assay, conditions: first compound 0.003162 µM

Cell Line	relative viability
NCI-H2342	0.491
RERF-LC-KJ	1.1
NCI-H1651	0.536
NCI-H1734	0.58
NCI-H596	1.12
LCLC-97TM1	0.218
EMC-BAC-2	1.03
NCI-H2087	1.32
HCC-44	1.02
NCI-H1703	0.146
NCI-H727	0.575
LK-2	0.578
NCI-H2126	0.921
NCI-H1648	0.524
NCI-H1793	0.432
H3255	0.818
LC-2-ad	0.781
LU99A	0.394
ChaGo-K-1	0.922
NCI-H522	0.745
SW 900	0.647
CAL-12T	0.673

Same assay, conditions: first compound 0.01 µM

Cell Line	relative viability
NCI-H2342	0.485
RERF-LC-KJ	0.872
NCI-H1651	0.399
NCI-H1734	0.539
NCI-H596	0.987
LCLC-97TM1	0.303
EMC-BAC-2	0.89
NCI-H2087	1.32
HCC-44	1.01
NCI-H1703	0.146
LK-2	0.274
NCI-H2126	0.966
NCI-H1648	0.741
NCI-H1793	0.574
H3255	0.821
LC-2-ad	0.859
LU99A	0.429
ChaGo-K-1	0.873
NCI-H522	0.967
SW 900	0.604
CAL-12T	0.529

Same assay, conditions: first compound 0.03162 µM

Cell Line	relative viability
NCI-H2342	0.426
RERF-LC-KJ	0.866
NCI-H1651	0.509
NCI-H1734	0.318
NCI-H596	0.986
LCLC-97TM1	0.244
EMC-BAC-2	0.636
NCI-H2087	1.34
HCC-44	1.04
NCI-H1703	0.119
NCI-H727	0.497
LK-2	0.341
NCI-H2126	0.985
NCI-H1648	0.843
NCI-H1793	0.298
H3255	0.964
LC-2-ad	0.827
LU99A	0.317
ChaGo-K-1	0.846
NCI-H522	0.656
SW 900	0.45
CAL-12T	0.668

Same assay, conditions: first compound 0.1 µM

Cell Line	relative viability
NCI-H2342	0.496
RERF-LC-KJ	0.896
NCI-H1651	0.397
NCI-H1734	0.283
NCI-H596	0.959
LCLC-97TM1	0.211
EMC-BAC-2	0.691
NCI-H2087	1.17
HCC-44	0.993
NCI-H1703	0.114
NCI-H727	0.573
LK-2	0.251
NCI-H2126	1
NCI-H1648	0.654
NCI-H1793	0.358
H3255	0.764
LC-2-ad	0.725
LU99A	0.324
